The values below come from PubChem BioAssay AID179 (DTP/NCI, 2004).

Active and inactive are the calls of the source.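 Rule for the calls: active = compounds giving half or more protection of infected cells from virus-caused growth loss, again on retest; inactive = the rest.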 Bounds are passed on as bounds.

The assay concerns CEM cells HIV-1 protection, formazan growth assay. The experiment in a line: NCI AIDS Antiviral Assay. To be noted: for IC50: measured here: growth of uninfected CEM cells. A digest of the protocol: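 Five concentrations of each compound were applied to infected and uninfected human CEM cells. Protection from HIV-1 was judged from growth measured with a soluble formazan assay.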

`Cc1cc2oc(=O)cc(C)c2c(=O)o1`: the EC50 (as a rule, the concentration at which the effect is half-maximal) was over 200 µM and the IC50 (in general, the concentration needed to halve the response being measured) was over 200 µM.

For `COc1ccc(-c2nc(-c3cnccn3)n(C3OC(CO)C(O)C3O)n2)cc1` (stereo not given), the EC50 was over 200 µM and the IC50 is over 200 µM.

With `COC(=O)C1=C(C(=O)OC)C2(C)Nc3ccccc3C2=C(c2ccccc2)C1` (stereo not given), the EC50 is over 19.1 µM and the IC50 is over 19.1 µM.

As to `N#C/C(=C\c1ccc2[nH]ccc2c1)C(=O)NCCCCNC(=O)/C(C#N)=C/c1ccc2[nH]ccc2c1`, the EC50 is over 7.94 µM and the IC50 was over 7.94 µM.

Consider `O=C1Cc2c([nH]c3ccccc23)C2(CC3CCCCN13)OCCO2` (stereo not given), for which the EC50 was over 200 µM and the IC50 was determined as 182 µM.

With `CCOC(=O)C1=C(C)N(c2ccc(C)cc2)C2=C(C(=O)N(c3ccccc3)C2c2ccccc2)C1c1ccccc1` (stereo not given), the EC50 was over 5.01 µM and the IC50 was over 5.01 µM.

`O=C(O)CCC1NC(/C(=C/c2ccccc2O)NC(=O)c2ccccc2)OC1=O` (stereo not given): the EC50 was over 151 µM and the IC50 is over 151 µM.

Consider `Cc1cc(NS(=O)(=O)c2ccc(Nc3c4ccccc4nc4c(C(=O)Nc5ccc(S(=O)(=O)N=C(N)N)cc5)cccc34)cc2)no1`, for which the EC50 is 18.6 µM and the IC50 was 53.7 µM.

As for `COC(=O)c1c(C)cccc1C1CN=NC12Cc1cccc(C)c1C2=O` (stereo not given), the EC50 was over 126 µM and the IC50 is 81.3 µM.

On to `COC(=O)CCN1CCN(CCO)CC1C` (stereo not given), for which the EC50 was over 200 µM and the IC50 was over 200 µM.

For `O=c1c2ccccc2nc(-c2ccccc2)n1/N=C/c1ccccc1[N+](=O)[O-]`, the EC50 is over 50.1 µM and the IC50 was over 50.1 µM.

As for `C=C(CCCC(C)OCOCCOC)[Si](C)(C)C` (stereo not given), the EC50 is over 95.5 µM and the IC50 was over 95.5 µM.

For the compound `CCOC(=O)CCc1c(C)[nH]c2c(C)c3c([nH]c4ccc(Cl)cc43)c(C)c2c1=O`, the EC50 is over 200 µM and the IC50 was 11 µM.

For `CCOc1cc(C2SCC(=O)N2c2ccc(Oc3ccc(Cl)cc3)c(Cl)c2)ccc1O` (stereo not given), the EC50 was over 200 µM and the IC50 came to 27.5 µM.

On to `COc1cc(N=O)c(N=O)cc1[N+](=O)[O-]`, for which the EC50 is over 170 µM and the IC50 came out at 15.1 µM.

Turning to `C=CCNC(=O)NC(=O)CSC1=NNC2(C(=O)N1)c1ccccc1-c1ccccc12`, the EC50 is over 200 µM and the IC50 worked out at 29.5 µM.

As to `NCC(O)c1cc(I)c(Oc2ccc(O)cc2)c(I)c1` (stereo not given), the EC50 is over 200 µM and the IC50 stood at 15.5 µM.

As to `N#CC1=C(N)N(c2ccccc2)C(c2ccco2)C1(C#N)C#N` (stereo not given), the EC50 is over 200 µM and the IC50 amounted to 10 µM.

Turning to `CCCCCC(=O)c1c(O)cc2c(c1O)C(=O)c1c(O)cc(O)cc1C2=O`, the EC50 is over 200 µM and the IC50 was found to be 56.2 µM.

Regarding `Cc1ccc(S(=O)(=O)N/N=C/CN2C(=O)c3ccccc3C2=O)cc1`, the EC50 is 182 µM and the IC50 was determined as 191 µM.

With `CC(=O)Oc1ccc2c3c4nc5ccccc5nc4cc(OC(C)=O)c3n(C)c2c1`, the EC50 is over 5.01 µM and the IC50 is over 5.01 µM.

Consider `O=C(CN1CCN(c2ccccc2)CC1)N1CCc2c([nH]c3ccccc23)C1c1cccnc1` (stereo not given), for which the EC50 is over 1.58 µM and the IC50 was over 1.58 µM.

For the compound `C=C[C@@]1(C)CC2CC[C@]3(C)C(C)=CC(=O)CC3[C@]2(C)CC1O` (stereo not given in full), the EC50 was over 200 µM and the IC50 was found to be 107 µM.

Regarding `CCOC(=O)C1(C(=O)OCC)C[C@]23OCCC(=O)[C@H]2[C@H]2C(=O)OC(C)(C)O[C@]23C1`, the EC50 was over 200 µM and the IC50 was over 200 µM.

`O=C1NCCCCC1CC/C=C/c1ccccc1` (stereo not given): the EC50 is over 148 µM and the IC50 was determined as 95.5 µM.

Take `CC(C)=COS(=O)(=O)C(F)(F)F`: the EC50 is over 200 µM and the IC50 came out at 110 µM.

Take `C(=NCCN=Cc1cccc2ccccc12)c1cccc2ccccc12`: the outcome was inactive.

On to `Cc1ccc(S(=O)(=O)N=C2C=C(C(C)(C)C)C(=O)C(C(C)(C)C)=C2)cc1`, for which the EC50 is over 36.3 µM and the IC50 was over 36.3 µM.

On to `S=C(N/N=C\C=N/NC(=S)N1CCCCCC1)N1CCCCCC1`, for which the EC50 is over 100 µM and the IC50 turned out to be 14.1 µM.

For `CC(C)(c1ccccc1)c1ccc(Oc2ccc3c(c2)-c2nc-3nc3[nH]c(nc4nc(nc5[nH]c(n2)c2ccc(Oc6ccc(C(C)(C)c7ccccc7)cc6)cc52)-c2cc(Oc5ccc(C(C)(C)c6ccccc6)cc5)ccc2-4)c2ccc(Oc4ccc(C(C)(C)c5ccccc5)cc4)cc32)cc1`, the EC50 is over 2.63 µM and the IC50 was over 2.63 µM.

For the compound `COc1ccc(Nc2nc3ccc(C(F)(F)F)cc3nc2-c2ccccc2)cc1OC`, the EC50 is over 17 µM and the IC50 is over 17 µM.

Turning to `O=C1CCC(NC(=O)c2ccccc2)C(=O)N1` (stereo not given), the EC50 is over 200 µM and the IC50 is over 200 µM.

Regarding `O=c1c2cn[nH]c2nc2scc(-c3ccc(Cl)cc3)n12`, the EC50 is over 200 µM and the IC50 is over 200 µM.

As to `CCOC(=O)c1nn2c(C)nnc2s1`, the result was inactive.

Turning to `O=c1oc2ccccc2c(O)c1C(c1ccc2c(c1)OCO2)N1CCOCC1` (stereo not given), the EC50 was over 200 µM and the IC50 was over 100 µM.

On to `CCOP(=O)(OCC)C(C)(C)OC(=O)NC(F)(F)F`, for which the EC50 was over 200 µM and the IC50 is over 200 µM.

With `CCCC(C(=O)Nc1cccc2[nH]cnc12)C(=O)OCC` (stereo not given), the EC50 is over 200 µM and the IC50 came out at 158 µM.

For `C[CH2][Pb]([CH2]C)([CH2]C)[O]C(=O)C(F)(F)F`, the EC50 was over 200 µM and the IC50 stood at 31.6 µM.

For the compound `O=C1C2C3C=CC(CC3)C2C(=O)C2C3C=CC(C3)C12` (stereo not given), the EC50 was over 200 µM and the half-maximal inhibitory concentration (IC50) turned out to be 129 µM.

For `O=[N+]([O-])/C=C/c1cn(CCCCCn2cc(/C=C/[N+](=O)[O-])c3ccccc32)c2ccccc12`, the EC50 was over 200 µM and the IC50 turned out to be 2.63 µM.

`O=S(=O)(/C=C/C=C/S(=O)(=O)c1ccccc1)c1ccccc1`: the EC50 is over 2 µM and the IC50 was 0.251 µM.

Consider `C=C(CO[Si](C)(C)C(C)(C)C)C(C)=O`, for which the result was inactive.

Consider `NC(=S)NNCC(=O)CC(O)(C(F)(F)F)C(F)(F)Cl` (stereo not given), for which the EC50 was over 200 µM and the IC50 was 123 µM.

For `Cc1cc(-c2ccc(C(=O)C(Cl)(Cl)Cl)[nH]2)on1`, the EC50 was over 200 µM and the IC50 was found to be 17.8 µM.

For `NNc1[nH]c(=S)[nH]c1C(N)=O`, the EC50 was over 200 µM and the IC50 is over 200 µM.

Turning to `COc1cc2c(cc1OC)CC(N=[N+]=[N-])c1cc(OC)c(OC)cc1/C=C\2` (stereo not given), the EC50 was over 200 µM and the IC50 worked out at 70.8 µM.

Turning to `O=C(Nc1ccccc1)O/N=C1/CCCC/C1=C\c1ccccc1`, the EC50 was over 42.7 µM and the IC50 is 39.8 µM.

Take `CCOC(=O)c1[nH]n(-c2ccccc2)c(=O)c1/C=N/C(=S)NNC(C)=O`: the result was inactive and the IC50 turned out to be 138 µM.

For `COc1ccc2c(C(=O)O)cc3ccccc3c2c1OC`, the result was inactive.

Consider `COc1ccccc1/C=C(\C#N)C(=O)O`, for which the EC50 was over 646 µM and the IC50 was found to be 251 µM.

Consider `O=C(O)c1cc(O)cc(O)c1N=Nc1ccc(/C=C/c2ccc(N=Nc3c(O)cc(O)cc3C(=O)O)cc2S(=O)(=O)O)c(S(=O)(=O)O)c1`, for which the EC50 is 0.813 µM and the IC50 is 91.2 µM.

As to `COC(=NC(C)C)NC(C)C`, the EC50 was over 200 µM and the IC50 is over 200 µM.

In the case of `c1cc(-c2ccc(-c3ccc(-c4ccc(-c5cccc6nsnc56)[nH]4)c4nsnc34)[nH]2)c2nsnc2c1`, the EC50 was over 100 µM and the IC50 was over 100 µM.

In the case of `O=C(N/N=C1/C(=O)N(c2ccc(Cl)cc2Cl)C(=O)C(=O)C1c1nc2ccccc2o1)c1ccccc1O` (stereo not given), the outcome was inactive.

Turning to `Cc1cc(=O)[nH]c(NNC(C#N)c2ccc([N+](=O)[O-])cc2)n1` (stereo not given), the EC50 was over 63.1 µM and the IC50 was over 63.1 µM.

As to `CCOC(=O)C(CCCCS(=O)(=O)O)C(=O)OCC`, the EC50 is over 200 µM and the IC50 is over 200 µM.

For the compound `COc1ccc2c(c1)O[C@H]1c3ccc(O)cc3OC[C@@H]21`, the result was inactive.

Regarding `CSc1c(C(=O)Nc2ccccc2)c(N)n(N)c(=O)c1C#N`, the EC50 was 55 µM and the IC50 is over 200 µM.

Turning to `O=P(Nc1ccccc1)(Oc1ccccc1)N(CCCl)CCCl` (stereo not given), the EC50 was over 50.1 µM and the IC50 came out at 22.4 µM.

Take `Cc1ccc(NC(=O)CCC(=O)C(C#N)c2ccc(Cl)cc2)cc1C` (stereo not given): the EC50 is over 708 µM and the concentration for half-maximal inhibition (IC50) is over 708 µM.

Take `C=C(C)Cn1c(=O)c2c(ncn2C)n(C)c1=O`: the EC50 is over 200 µM and the IC50 is over 200 µM.

`CC1=CC(O)C(C(O)(C(F)(F)F)C(F)(F)F)C(C)(C)C1` (stereo not given): the EC50 is over 200 µM and the IC50 turned out to be 178 µM.

Consider `COc1cc(C[P+](c2ccccc2)(c2ccccc2)c2ccccc2)cc(OC)c1OC`, for which the EC50 is over 479 µM and the IC50 is 33.1 µM.

On to `N#CC1C(=O)Nc2cccnc21` (stereo not given), for which the EC50 was over 1580 µM and the IC50 came to 832 µM.

Take `CC1(C)OC2[C@@H](CO[C@@]3([C@H]4OC(C)(C)O[C@@H]4CO)OC(C)(C)O[C@@H]23)O1` (stereo not given in full): the EC50 was over 200 µM and the IC50 is over 200 µM.

As to `COc1cc(OC)cc(-n2c(N)c(-c3nc4ccccc4n3C)c3ccc([N+](=O)[O-])cc3c2=O)c1`, the EC50 was over 200 µM and the IC50 was over 200 µM.

On to `COc1ccc(/C(C#N)=C/c2cccc([N+](=O)[O-])c2)cc1`, for which the EC50 is over 200 µM and the IC50 is over 200 µM.

Consider `CC1(C)OC(=O)c2c(cc(N3CCOCC3)oc2=O)O1`, for which the EC50 is over 200 µM and the IC50 is over 200 µM.

On to `Cc1nc(C(N)=S)sc1C(=O)CC(=O)C(=O)Nc1ccccc1[N+](=O)[O-]`, for which the outcome was inactive.

For `[N-]=[N+]=NC1=C(C(=O)c2ccccc2)C(=O)c2cccc3cccc1c23`, the EC50 was over 100 µM and the IC50 came out at 49 µM.

As to `C/C(=N/OC(=O)N(C)C)c1ccccc1`, the EC50 was over 200 µM and the IC50 is over 200 µM.
